Where “and” joins values, the source holds several entries; their conditions need not be identical. Equal values may be shown once. Entries after “also recorded” stand apart in the source; their conditions may differ. Read-outs that look alike come from different tables or passages of the source.
Legend:
[1] = system: HCT116 (colorectal carcinoma cell line); assay: MTS cell viability assay, HCT116; assay type: cell-based, human; conditions: mean ± SEM
[2] = system: A2780 (ovarian carcinoma cell line); assay: MTS cell viability assay, A2780; assay type: cell-based, human; conditions: mean ± SEM
HCT116-DoxR spheroids = assay: MTS assay in 3D spheroids; assay type: cell-based, human; conditions: HCT116-DoxR spheroids 6- to 8-day-old, 48 h
HCT116-DoxR cells [3] = assay: Cell internalization by ICP-AES; assay type: cell-based, human; conditions: 3 h exposure to 10x IC50, ICP-AES
HCT116-DoxR cells [4] = assay: Alexa Fluor 488-annexin V/PI apoptosis assay, flow cytometry; assay type: cell-based, human; conditions: 48 h; for increase of percentage of apoptotic cells normalized to DMSO: IC50; for early apoptosis / late apoptosis / necrosis / percentage of apoptosis (total) / viable cells: complexes at IC50, cisplatin 5 μM, Dox 6 μM
BAX = assay: Western blot, BAX expression; assay type: cell-based, human; conditions: HCT116-DoxR, 48 h; for BAX/BCL-2 ratio normalized to DMSO control: IC50; for BAX protein expression vs DMSO control: IC50, normalized to β-actin
BCL-2 = assay: Western blot, BCL-2 expression; assay type: cell-based, human; conditions: HCT116-DoxR, 48 h, IC50, normalized to β-actin
cleaved PARP1 = assay: Western blot, cleaved PARP1 expression; assay type: cell-based, human; conditions: HCT116-DoxR, 48 h, IC50
HCT116-DoxR cells [5] = assay: Mitochondrial membrane potential, JC-1, flow cytometry; assay type: cell-based, human; conditions: 48 h, complexes at IC50, cisplatin 5 μM, Dox 6 μM
From the text: The use of the fluorescent probe JC-1 (5,5,6,6′-tetrachloro-1,1′,3,3′ tetraethylbenzimidazolcarbocyanine iodide) allows the evaluation of ΔΨm, as the aggregation of the probe changes whether the mitochondrial membrane is hyperpolarized or depolarized.[95],[96] In healthy cells with high mitochondrial potential, JC-1 enters and accumulates inside mitochondria, where it forms complexes known as J-aggregates, emitting red fluorescence. However, in cells with a loss of ΔΨm, JC-1 is unable to remain in the mitochondria and exits to the cytoplasm, accumulating in its monomeric form and emitting green fluorescence. Thus, the ratio of the red/green fluorescence intensities can be used to indicate polarization (ratio > 1) or depolarization (ratio < 1) of the mitochondrial membrane (Figure 7).[94],[95]
(§1) Antibody; Cell Signalling Technology, USA).
(§2) Assay Kit (Abnova Corporation, Walnut, CA, USA).
(§3) vanadium complexes at its IC50 concentrations.
(§4) Cells were then incubated
(§5) Flow Cytometer (Life Technologies, Carlsbad, USA).
(§6) HCT116-DoxR cell line was cultivated

caspase-8 = assay: Caspase-8 activity, IETD-pNA cleavage; assay type: cell-based, human; conditions: HCT116-DoxR, 48 h; complexes at IC50, cisplatin 5 μM
Experimental: Since caspase-8 is an initiator caspase of the extrinsic apoptotic pathway, its activity was evaluated after HCT116-DoxR cells were exposed to complexes 5 and 8 (Figure 8).
The chromogenic substrate IETD-pNA, which results from the conjugation between the peptide IETD (Ile-Glu-Thr-Asp) and the chromophore p-nitroanilide (pNA), is cleaved by caspase-8 and releases pNA, which can be detected by measuring absorbance at 400 nm.[99] Therefore, if complexes 5 and 8 induce cell death through the extrinsic apoptotic pathway, there is an increase in absorbance at 400 nm compared to the control sample, corresponding to an increase in caspase-8 activity that is translated into the cleavage of the substrate IETD-pNA (Figure 8).
as §1, §2, §3, §4, §5, §6

HCT116-DoxR cells [6] = assay: ROS production, H2DCF-DA, flow cytometry; assay type: cell-based, human; conditions: 48 h, IC50
Experimental: Thus, the level of ROS present in HCT116-DoxR cells after their exposure to vanadium complexes was quantified (Figure 10). The probe 2′,7′-dichlorohydrofluorescein diacetate (H2DCF-DA), which diffuses into cells and is deacetylated by cellular esterases resulting in a nonfluorescent compound, was used. Inside the cell, this molecule is oxidized by ROS and then originates the fluorescent molecule 2′,7′-dichlorofluorescein (DCF) that can be detected by flow cytometry.[103]
(§7) finishing the 48 h period.
(§8) Attune® Cytometric software.
(§9) Butyl hydroperoxide) were used as controls.
(§10) Cells were later analysed
(§11) (double thymidine block).
(§12) After this, the pellet was resuspended in
Control solutions were also prepared, namely a […]

[7] = target: T1, BSA (bovine serum albumin) (Bos taurus, UniProt P02769); assay: BSA binding, UV-vis and fluorescence spectroscopy; conditions: for BSA fluorescence with increasing complex concentrations: BSA 20 μM, complexes 10-100 μM, pH 7.0, 24 h, 37 °C; for interaction with BSA protein: UV-vis and fluorescence spectroscopy
T1 construct: I (1–195), II (196–383), and III (384–583)
T1 sequence (P02769 25-607): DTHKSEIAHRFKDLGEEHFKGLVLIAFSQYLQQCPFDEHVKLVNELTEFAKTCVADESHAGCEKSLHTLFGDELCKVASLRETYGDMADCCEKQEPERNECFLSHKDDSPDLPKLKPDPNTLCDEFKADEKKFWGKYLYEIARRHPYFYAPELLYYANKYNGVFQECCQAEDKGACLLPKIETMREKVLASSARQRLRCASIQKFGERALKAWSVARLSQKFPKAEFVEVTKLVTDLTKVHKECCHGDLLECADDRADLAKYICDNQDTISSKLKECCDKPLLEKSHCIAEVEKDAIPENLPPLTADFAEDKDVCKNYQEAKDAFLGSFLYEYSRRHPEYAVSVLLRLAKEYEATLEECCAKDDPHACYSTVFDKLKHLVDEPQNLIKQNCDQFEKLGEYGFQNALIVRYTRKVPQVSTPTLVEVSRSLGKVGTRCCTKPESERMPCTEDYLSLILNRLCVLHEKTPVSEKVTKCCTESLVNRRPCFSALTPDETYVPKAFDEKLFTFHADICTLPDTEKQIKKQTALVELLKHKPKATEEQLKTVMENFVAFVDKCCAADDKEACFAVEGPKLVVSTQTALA

fibroblasts = assay: Cell migration (wound healing) assay; assay type: cell-based, human; conditions: 24 h, IC50
Experimental: In the wound healing assay, a region without cells is generated, being then exposed to the compounds, and the cell migration is analyzed after 24 h, to determine the cells’ ability to proliferate and refill the gap previously formed (Figure 14).[116]
as §7, §8, §9, §10, §11, §12
Control solutions were also prepared, namely a
DMSO only. […] The UV-Vis spectra were […]

[8] = system: chick chorioallantoic membrane; assay: Ex ovo chick chorioallantoic membrane (CAM) assay, angiogenesis; assay type: in vivo, chicken; conditions: chick embryo CAM; for anti-/pro-angiogenic potential, newly formed blood vessels, 48 h: IC50, 48 h
From the text: The ex ovo CAM assay was used to evaluate the role of vanadium complexes in the process of angiogenesis. CAM is a chicken extraembryonic membrane and is often used to study the process of angiogenesis in vivo as it has a high density of blood and lymphatic vessels.[120] This assay consists of analyzing certain vascularized areas of the chorioallantoic membrane of a chicken embryo. Initially, o-rings are placed covering those membrane vascularized areas being then exposed to the complexes. Pictures are then taken at 0, 24, and 48 h after exposure to the complexes and the number of blood vessels present at each hour are counted and compared. The results can be observed in Figure 15.
Ex-ovo Chick Chorioallantoic Membrane (CAM) assay
The ex-ovo chorioallantoic membrane (CAM) assay was performed in order to evaluate the angiogenic potential of vanadium complexes, as already described in literature11–13. Firstly, chicken embryos were […]
concentration of each complex dissolved in PBS 1x was placed in the centre of O-rings. Beside each complex, DMSO 0.1% (v/v) was used as a control and complex distribution in chicken embryos was always performed in a different order. The embryos were incubated for 48 h at 37 °C and images were […]
Newly formed blood vessels were later manually counted, via ImageJ software.
The ex-ovo CAM assay fulfils the Directive 2010/63/ EU of the European Parliament for protection of animal models for scientific purposes.
All data are presented as Mean ± SEM from at least two independent experiments unless otherwise specified. One-way ANOVA or Student’s t-test were used to determine statistical significance (p < 0.05) using the GraphPad Prism 8 software (GraphPad Software, San Diego, CA, USA).

[9] = Stability and solubility in RPMI culture medium, UV-vis; assay type: physicochemical; conditions: UV-vis at 0, 24, 48 h
[10] = system: HCT116-DoxR (doxorubicin-resistant colorectal carcinoma cell line); assay: MTS cell viability assay, HCT116-DoxR;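 note: MTS colorimetric quantification of viable cells, with loss of viability tracked as complex concentration rises, in DMEM-grown HCT116-DoxR, a line whose resistance involves P-glycoprotein efflux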
Experimental: (§13) To assess the cytotoxicity of vanadium complexes in tumor and healthy cells, the MTS assay, a colorimetric method that allows the quantification of viable cells present in solution,[71] was performed.
Cell culture and maintenance
(§14) The A2780 cancer cell line (ovarian carcinoma) was purchased from Sigma-Aldrich (Madrid, Spain)
(§15) while HCT116 cancer cell line (colorectal carcinoma) and the normal human primary dermal
(§16) fibroblasts were obtained from American Type Culture Collection (ATCC®, Manassas, VA, USA).
(§17) HCT116 Dox-resistant cell line (HCT116-DoxR) was derived from HCT116 parental cells, as
(§18) All cells were cultured in Dulbecco’s modified Eagle medium (DMEM), except the A2780 cell line
(§19) which was cultured in RPMI (Roswell Park Memorial Institute) medium. Both media were
(§20) supplemented with 10% (v/v) fetal bovine serum (FBS) and 1% (v/v) of a Pen/Strep
(§21) (Penicillin/Streptomycin) solution. HCT116-DoxR cell medium was additionally supplemented with
(§22) All media and supplements were purchased from Thermo Fischer Scientific (Waltham, Massachusetts, USA).
(§23) (SANYO CO2 Incubator, Electric Biomedical Co., Osaka, Japan).
(§24) HCT116, HCT116-DoxR and A2780 cancer cell lines and normal human primary fibroblasts were
(§25) used in cellular viability assays. Cells were seeded in a density of 0.75×10^5 cells/mL into 96 well-
(§26) After the 24 h of incubation, complexes were
(§27) weight and immediately solubilized in 100% (v/v) DMSO and then, diluted for the final concentration
(§28) with cell culture medium. The medium in each 96 well-plates will be replaced by fresh medium
(§29) containing each vanadium complex (concentrations ranging from 0.01 µM to 50 µM). Culture medium
(§30) with 0.1% (v/v) DMSO and 0.4 µM Dox were used as negative and positive controls, respectively.

[11] = system: normal human primary dermal fibroblasts; assay: MTS cell viability assay, fibroblasts; conditions: read-out: IC50 fibroblasts; 48 h of exposure, MTS, mean ± SEM
Experimental: as §13
Cell culture and maintenance
as §14, §15, §16, §17, §18, §19, §20, §21, §22, §23, §24, §25, §26, §27, §28, §29, §30

HCT116-DoxR cells [12] = assay: Cell cycle progression, PI, flow cytometry; conditions: HCT116-DoxR, 3, 9, 24, 32 h; complexes at IC50, cisplatin 5 μM, Dox 6 μM
HCT116-DoxR cells [13] = assay: Autophagy induction, Green Detection Reagent, flow cytometry; conditions: 48 h, complexes at IC50, cisplatin 5 μM, Dox 6 μM
[14] = n-octanol/PBS buffer partition coefficient, shake-flask, UV-vis; conditions: room temperature
Experimental: The lipophilicity of V(IV) complexes was investigated using the classical shake-flash method at room temperature in the two-phase system of immiscible solvents n-octanol/PBS buffer.[69],[70] The transfer of V(IV) compounds from the aqueous environment to the organic phase was monitored by UV–vis spectroscopy.
The n-octanol/PBS buffer partition coefficients (logP) were determined by shake-flash approach, and
the transfer of V(IV) compounds from the aqueous environment to the organic phase was monitored
by UV-Vis spectroscopy5,6. Solutions of 1–10 of concentrations in the range 10-100 M were prepared
in PBS buffer saturated with n-octanol from the freshly-prepared stock solution in DMSO (5mM or 50
mM), and their UV-Vis spectra were recorded. The solution of 1–10 in aqueous buffer (3 ml) were
mixed with n-octanol saturated with pH 7.4 aqueous buffer (3 ml), and the obtained mixtures were
stirred in a mechanical shaker for 30 min. The mixtures were allowed to stand at room temperature for
24 h, and after this time, the aqueous phases were separated, and the concentrations of 1–10 were
determined by measuring their UV-Vis spectra. For each complex, the highest energy absorption band was taken into consideration to determine the sample concentration.

[15] = system: HCT116-DoxR (doxorubicin-resistant colorectal carcinoma cell line); conditions: doxorubicin in resistant line; cited from earlier work
[16] = read-out: IC50 2D, HCT116-DoxR 2D culture, 48 h
[17] = read-out: IC50 HCT116-DoxR, 48 h of exposure, MTS, mean ± SEM

Compound | IC50 ([1]; 48 h of exposure) [nM] | IC50 ([2]; 48 h of exposure) [nM] | IC50 (HCT116-DoxR spheroids) [nM] | Concentration in cells (HCT116-DoxR cells [3]) [µM] | Internalized percentage (HCT116-DoxR cells [3]) | increase of percentage of apoptotic cells normalized to DMSO (HCT116-DoxR cells [4]) [fold] | early apoptosis (HCT116-DoxR cells [4]) [%] | late apoptosis (HCT116-DoxR cells [4]) [%] | necrosis (HCT116-DoxR cells [4]) [%] | percentage of apoptosis (total) (HCT116-DoxR cells [4]) | viable cells (HCT116-DoxR cells [4]) [%] | BAX/BCL-2 ratio normalized to DMSO control (BAX) | BAX protein expression vs DMSO control (BAX) | BCL-2 protein expression vs DMSO control (BCL-2) | increase in expression of cleaved PARP1 vs 0.1% DMSO (cleaved PARP1) [fold] | caspase-8 activity vs 0.1% DMSO (caspase-8) | ROS production, increase over the DMSO control (HCT116-DoxR cells [6]) [fold] | BSA fluorescence with increasing complex concentrations [7] | cell cycle arrest / cytostatic effect (HCT116-DoxR cells [12]) | increase of autophagic vesicles over the control (HCT116-DoxR cells [13]) [fold] | further results
O=C1[O][V](=[O])[O]C(=O)c2cccc1n2.c1ccc(-c2ccnc3c2ccc2c(-c4ccccc4)ccnc23)cc1 [complex 6, [VO(dipic)(4,7-Ph2-phen)]] | 900 ± 30 | 200 ± 90 | 3100 ± 420 | 1.672 | 98.32% and ~100% | 2.5 | 57.7 ± 5.8 | 13.4 ± 5.9 | 1.2 ± 0.9 | about 70% | 27.7 ± 7.9 | ~3 | increase | decrease | 8 | not detected | 2.6 | high decrease in BSA fluorescence | no cell cycle arrest | ~2.3 | JC-1 red/green fluorescence intensity ratio normalized to DMSO (HCT116-DoxR cells [5]): ~0.69; interaction with BSA protein [7]: capable of interacting; cell migration (wound remission) (fibroblasts): do not promote cell migration; anti-angiogenic potential, newly formed blood vessels, 24 h ([8]; IC50, 24 h): some anti-angiogenic potential; anti-/pro-angiogenic potential, newly formed blood vessels, 48 h [8]: no longer present; also recorded: no anti-/pro-angiogenic potential; solubility in RPMI culture medium over time [9]: loss of solubility over time; stability in RPMI culture medium [9]: no spectral changes over time; IC50 [10, 16]: 200 ± 50 nM; IC50 [10, 17]: 200 ± 50 nM; IC50 [11]: 4000 ± 50 nM; log P [14]: 0.57
COc1cccc2c1C(=O)c1c(O)c3c(c(O)c1C2=O)C[C@@](O)(C(=O)CO)C[C@@H]3O[C@H]1C[C@H](N)[C@H](O)[C@H](C)O1 [doxorubicin, reference compound] | – | – | – | – | – | – | 19.0 ± 4.4 | – | 11.2 ± 2.0 | 34% | 54.9 ± 4.3 | – | – | – | – | – | – | – | did not occur | ~2.3 | IC50 ([1]; Homo sapiens, HCT-116, 48 h of exposure): 500 ± 100 nM; IC50 ([2]; Homo sapiens, A2780, 48 h of exposure): 100 ± 40 nM; necrosis (HCT116-DoxR cells [4]; listed as Dox): 11%; viable cells (HCT116-DoxR cells [4]; listed as Dox): about 55%; IC50 [15]: > 6000 nM
COc1ccnc2c1ccc1c(OC)ccnc12.O=C1[O][V](=[O])[O]C(=O)c2cccc1n2 [complex 5, [VO(dipic)(4,7-(CH3O)2-phen)]] | 1800 ± 40 | 1300 ± 10 | 3500 ± 200 | 1.590 | 98.55% and ~100% | 2.5 | 59.4 ± 3.6 | 11.5 ± 5.0 | 0.8 ± 0.6 | about 70% | 28.3 ± 3.5 | ~1 | increased expression | increased expression | 5 | higher level of caspase-8 | 2.5 | high decrease in BSA fluorescence | no cell cycle arrest | ~2.3 | interaction with BSA protein [7]: capable of interacting; cell migration (wound remission) (fibroblasts): do not promote cell migration; anti-/pro-angiogenic potential, newly formed blood vessels, 48 h [8]: no anti-/pro-angiogenic potential; stability in RPMI culture medium [9]: no structural changes; IC50 [10, 16]: 200 ± 100 nM; IC50 [10, 17]: 200 ± 100 nM; IC50 [11]: 3100 ± 70 nM; log P [14]: 0.55

From PMC10350923, “In Vitro and In Vivo Biological Activities of Dipicolinate Oxovanadium(IV) Complexes” (Journal of Medicinal Chemistry, 2023)
